The structures appear in SMILES notation.

The term IC50 denotes the midpoint of a concentration-inhibition curve.

This assay relates to MOLM-13. Description: Antiproliferative activity against human MOLM-13 cells assessed as reduction in cell viability incubated for 72 hrs by CellTiter-Glo assay. It counts as functional, cell-based. The following applies: MOLM-13, 72 h. Background: ATP-based viability assays read luminescence as a measure of living cells.
Consider `Cc1cn(-c2cc(O[C@@H](C)C(F)(F)F)c(C(=O)Nc3c(F)cccc3Cl)cc2F)nc1C(C)(C)O`, for which the IC50 came to 0.07 nM.

Turning to `Cc1cn(-c2cc(O[C@@H](C)C(F)(F)F)c(C(=O)Nc3c(F)cccc3Cl)cc2F)nc1[C@@H](C)O`, the half-inhibitory concentration (IC50) came to 0.08 nM.

Regarding `Cc1cn(-c2cc(O[C@@H](C)C(F)(F)F)c(C(=O)Nc3c(C)n[nH]c3Cl)cc2F)nc1[C@@H](C)O`, the 50% inhibitory concentration (IC50) stood at 0.26 nM.

In the case of `Cc1cn(-c2cc(O[C@@H](C)C(F)(F)F)c(C(=O)Nc3c(C)n[nH]c3Cl)cc2F)nc1C(C)(C)O`, the IC50 stood at 0.09 nM.

Consider `Cc1cn(-c2cc(O[C@@H](C)C(F)(F)F)c(C(=O)Nc3c(F)cccc3Cl)cc2F)nc1[C@H](C)O`, for which the IC50 was determined as 0.03 nM.

As for `Cc1cn(-c2cc(O[C@@H](C)C(F)(F)F)c(C(=O)Nc3c(C)n[nH]c3Cl)cc2F)nc1[C@H](C)O`, the half-inhibitory concentration (IC50) was 0.21 nM.

The values are drawn from ChEMBL document CHEMBL5360604, “Novel Dihydroorotate Dehydrogenase Inhibitors for Treating Acute Myelogenous Leukemia” (ACS Med Chem Lett, 2023).
